Among the targets are RIPK2 (Homo sapiens, UniProt O43353); STK35 (Homo sapiens, UniProt Q8TDR2); PRKCD (Homo sapiens, UniProt Q05655).
Experiment in all cases: biochemical
What all share (parameters): KINOMEscan scanMAX competition binding, DNA-tagged kinases, qPCR read-out, percent control at 300 nM
In general terms: Quantitative PCR measures a nucleic acid by following its amplification.

Experiment [1] deals with T1, ABL1(H396P)-phosphorylated (Homo sapiens, UniProt P00519, H396P).
T1 construct: phosphorylated

For another experiment, the target named is T2, ICK (Homo sapiens, UniProt Q9UPZ9).
T2 construct: gene CILK1
T2 sequence (Q9UPZ9 1-632): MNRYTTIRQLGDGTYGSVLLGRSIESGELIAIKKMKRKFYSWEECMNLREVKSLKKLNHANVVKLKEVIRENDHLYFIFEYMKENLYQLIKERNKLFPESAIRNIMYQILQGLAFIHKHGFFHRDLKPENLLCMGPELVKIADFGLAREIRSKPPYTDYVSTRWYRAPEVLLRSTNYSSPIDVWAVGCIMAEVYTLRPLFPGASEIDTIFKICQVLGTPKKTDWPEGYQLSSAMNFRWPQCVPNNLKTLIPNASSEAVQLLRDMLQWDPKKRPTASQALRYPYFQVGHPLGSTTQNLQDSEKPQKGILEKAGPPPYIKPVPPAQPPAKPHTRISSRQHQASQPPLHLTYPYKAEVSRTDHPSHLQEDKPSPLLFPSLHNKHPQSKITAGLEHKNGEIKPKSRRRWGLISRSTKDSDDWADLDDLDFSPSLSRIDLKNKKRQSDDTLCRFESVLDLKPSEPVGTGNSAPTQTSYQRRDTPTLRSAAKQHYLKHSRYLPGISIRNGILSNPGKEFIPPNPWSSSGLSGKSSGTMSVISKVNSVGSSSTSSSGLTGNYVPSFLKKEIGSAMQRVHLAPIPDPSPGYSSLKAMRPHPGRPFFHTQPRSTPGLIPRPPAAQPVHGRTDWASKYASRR

The next experiment concerns the target T3, NEK3 (Homo sapiens, UniProt P51956).
T3 sequence (P51956 1-506): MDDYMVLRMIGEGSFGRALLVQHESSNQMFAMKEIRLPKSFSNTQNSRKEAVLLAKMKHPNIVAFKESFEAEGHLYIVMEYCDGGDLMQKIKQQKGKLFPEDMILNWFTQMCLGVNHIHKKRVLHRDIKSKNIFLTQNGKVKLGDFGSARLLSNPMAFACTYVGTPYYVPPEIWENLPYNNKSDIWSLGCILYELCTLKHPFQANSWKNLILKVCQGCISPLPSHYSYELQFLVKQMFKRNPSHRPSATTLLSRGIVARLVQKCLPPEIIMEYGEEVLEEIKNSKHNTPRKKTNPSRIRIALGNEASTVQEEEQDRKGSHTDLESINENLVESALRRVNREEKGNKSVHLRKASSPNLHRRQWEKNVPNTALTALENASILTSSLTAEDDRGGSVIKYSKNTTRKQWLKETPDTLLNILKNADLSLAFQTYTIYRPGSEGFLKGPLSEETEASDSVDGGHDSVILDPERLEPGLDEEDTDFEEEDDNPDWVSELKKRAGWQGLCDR

The target of the next experiment is T4, PIK4CB (Homo sapiens, UniProt Q9UBF8).
T4 construct: gene PI4KB

Experiment [2] has as its target T5, RSK1(Kin.Dom.1-N-terminal) (Homo sapiens, UniProt Q15418).
T5 construct: gene RPS6KA1; Kin.Dom.1-N-terminal

For a further experiment, the target named is T6, TRKA (Homo sapiens, UniProt P04629).
T6 construct: gene NTRK1

For the next experiment, the target named is T7, MARK4 (Homo sapiens, UniProt Q96L34).
T7 sequence (Q96L34 1-752): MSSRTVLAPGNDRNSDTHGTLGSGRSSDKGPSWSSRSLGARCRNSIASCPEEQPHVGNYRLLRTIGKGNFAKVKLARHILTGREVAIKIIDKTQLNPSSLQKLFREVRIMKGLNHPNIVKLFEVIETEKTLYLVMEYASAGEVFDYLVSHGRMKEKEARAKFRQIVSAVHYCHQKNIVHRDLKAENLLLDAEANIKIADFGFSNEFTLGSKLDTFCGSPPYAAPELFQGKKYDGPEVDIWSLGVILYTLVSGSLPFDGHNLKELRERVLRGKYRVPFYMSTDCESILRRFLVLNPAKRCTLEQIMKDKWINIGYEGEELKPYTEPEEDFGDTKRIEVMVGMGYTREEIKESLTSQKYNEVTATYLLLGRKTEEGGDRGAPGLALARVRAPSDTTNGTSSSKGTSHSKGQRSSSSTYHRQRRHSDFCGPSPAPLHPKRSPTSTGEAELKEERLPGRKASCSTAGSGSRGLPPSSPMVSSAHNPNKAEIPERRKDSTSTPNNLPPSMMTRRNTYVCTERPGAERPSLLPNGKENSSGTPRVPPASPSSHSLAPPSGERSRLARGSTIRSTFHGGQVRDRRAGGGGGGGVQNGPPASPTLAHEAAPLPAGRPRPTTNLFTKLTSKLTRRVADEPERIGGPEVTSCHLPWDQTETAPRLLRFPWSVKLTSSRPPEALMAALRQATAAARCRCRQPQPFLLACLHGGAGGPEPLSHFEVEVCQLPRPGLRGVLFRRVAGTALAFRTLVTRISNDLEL

[3] abbreviates: read-out: Percent control / Acalabrutinib.
The mark [4] stands for this setting: read-out: Percent control / Ibrutinib.
The mark [5] stands for this setting: read-out: Percent control / Tirabrutinib.
[6] abbreviates: read-out: Percent control / Zanubrutinib.

Like-named read-outs stand apart in the source and are kept apart here.

T5 sequence (Q15418 whole entry): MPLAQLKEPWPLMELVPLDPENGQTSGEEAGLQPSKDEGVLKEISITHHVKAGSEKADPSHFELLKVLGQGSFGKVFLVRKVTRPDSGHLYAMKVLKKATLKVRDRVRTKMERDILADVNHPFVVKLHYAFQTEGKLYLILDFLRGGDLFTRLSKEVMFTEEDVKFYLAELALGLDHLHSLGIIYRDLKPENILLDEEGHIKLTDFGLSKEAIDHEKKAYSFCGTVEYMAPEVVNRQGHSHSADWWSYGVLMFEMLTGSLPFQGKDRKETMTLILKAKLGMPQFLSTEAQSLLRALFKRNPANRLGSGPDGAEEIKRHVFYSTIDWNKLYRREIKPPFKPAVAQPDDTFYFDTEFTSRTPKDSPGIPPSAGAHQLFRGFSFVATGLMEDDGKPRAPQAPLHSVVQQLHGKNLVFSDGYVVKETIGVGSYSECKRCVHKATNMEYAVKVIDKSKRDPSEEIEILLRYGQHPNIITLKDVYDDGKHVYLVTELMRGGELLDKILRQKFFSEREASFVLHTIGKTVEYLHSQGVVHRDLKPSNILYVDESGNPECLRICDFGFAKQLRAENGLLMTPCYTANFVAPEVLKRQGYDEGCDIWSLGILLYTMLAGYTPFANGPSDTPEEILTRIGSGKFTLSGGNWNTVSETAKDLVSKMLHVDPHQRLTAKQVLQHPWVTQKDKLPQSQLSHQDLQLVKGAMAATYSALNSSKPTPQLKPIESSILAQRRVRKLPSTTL
T4 sequence (Q9UBF8 whole entry): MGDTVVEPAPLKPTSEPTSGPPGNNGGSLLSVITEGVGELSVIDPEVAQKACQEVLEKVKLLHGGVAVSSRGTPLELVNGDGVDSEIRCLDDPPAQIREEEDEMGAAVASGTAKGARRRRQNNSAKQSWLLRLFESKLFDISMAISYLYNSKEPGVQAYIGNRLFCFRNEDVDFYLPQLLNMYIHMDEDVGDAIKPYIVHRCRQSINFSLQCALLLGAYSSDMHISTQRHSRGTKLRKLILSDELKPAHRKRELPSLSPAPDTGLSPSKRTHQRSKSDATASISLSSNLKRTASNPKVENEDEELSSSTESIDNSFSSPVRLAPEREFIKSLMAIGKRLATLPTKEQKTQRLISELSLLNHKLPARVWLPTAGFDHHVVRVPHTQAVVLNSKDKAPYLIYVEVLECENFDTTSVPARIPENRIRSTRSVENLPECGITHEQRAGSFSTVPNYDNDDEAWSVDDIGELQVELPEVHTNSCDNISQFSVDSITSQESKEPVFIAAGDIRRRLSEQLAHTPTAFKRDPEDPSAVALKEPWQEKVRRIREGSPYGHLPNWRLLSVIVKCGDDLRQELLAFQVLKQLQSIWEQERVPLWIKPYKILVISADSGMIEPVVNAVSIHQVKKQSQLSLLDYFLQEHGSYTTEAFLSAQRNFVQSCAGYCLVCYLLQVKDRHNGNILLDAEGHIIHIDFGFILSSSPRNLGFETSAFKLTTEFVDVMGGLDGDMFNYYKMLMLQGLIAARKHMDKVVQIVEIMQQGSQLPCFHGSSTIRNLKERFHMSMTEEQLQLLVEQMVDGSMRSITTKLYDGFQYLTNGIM
PRKCD, sequence (Q05655 whole entry): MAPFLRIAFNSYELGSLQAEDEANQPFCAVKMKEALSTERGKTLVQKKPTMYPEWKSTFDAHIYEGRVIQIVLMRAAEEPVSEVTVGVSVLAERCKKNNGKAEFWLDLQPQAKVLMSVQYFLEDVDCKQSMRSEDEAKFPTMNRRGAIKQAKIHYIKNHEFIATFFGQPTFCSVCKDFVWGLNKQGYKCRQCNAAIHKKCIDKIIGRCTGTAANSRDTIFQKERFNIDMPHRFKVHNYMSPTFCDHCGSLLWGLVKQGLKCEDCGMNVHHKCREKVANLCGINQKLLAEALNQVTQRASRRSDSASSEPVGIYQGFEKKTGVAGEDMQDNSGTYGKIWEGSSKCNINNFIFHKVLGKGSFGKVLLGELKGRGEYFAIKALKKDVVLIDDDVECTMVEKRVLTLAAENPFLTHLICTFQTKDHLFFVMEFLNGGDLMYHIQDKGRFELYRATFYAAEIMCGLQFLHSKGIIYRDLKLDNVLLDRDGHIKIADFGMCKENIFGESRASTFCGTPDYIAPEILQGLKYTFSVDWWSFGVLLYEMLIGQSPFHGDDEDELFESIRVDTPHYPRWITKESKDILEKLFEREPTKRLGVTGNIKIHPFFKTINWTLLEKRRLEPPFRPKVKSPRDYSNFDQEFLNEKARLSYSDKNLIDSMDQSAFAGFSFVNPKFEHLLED
RIPK2, sequence (O43353 whole entry): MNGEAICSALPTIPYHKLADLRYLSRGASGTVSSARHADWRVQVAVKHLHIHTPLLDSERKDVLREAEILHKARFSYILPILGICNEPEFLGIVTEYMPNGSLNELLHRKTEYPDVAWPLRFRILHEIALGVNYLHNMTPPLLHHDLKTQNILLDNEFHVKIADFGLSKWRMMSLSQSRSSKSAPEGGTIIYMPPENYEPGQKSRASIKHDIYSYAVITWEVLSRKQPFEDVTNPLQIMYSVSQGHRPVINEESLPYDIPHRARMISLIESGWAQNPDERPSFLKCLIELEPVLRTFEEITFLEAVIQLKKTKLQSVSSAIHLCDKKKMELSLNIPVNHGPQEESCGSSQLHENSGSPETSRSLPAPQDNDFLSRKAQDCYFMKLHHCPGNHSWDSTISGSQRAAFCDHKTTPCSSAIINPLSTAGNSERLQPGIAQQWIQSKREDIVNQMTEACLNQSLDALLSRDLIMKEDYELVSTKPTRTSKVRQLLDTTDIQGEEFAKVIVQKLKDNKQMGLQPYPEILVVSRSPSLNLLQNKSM
STK35, sequence (Q8TDR2 whole entry): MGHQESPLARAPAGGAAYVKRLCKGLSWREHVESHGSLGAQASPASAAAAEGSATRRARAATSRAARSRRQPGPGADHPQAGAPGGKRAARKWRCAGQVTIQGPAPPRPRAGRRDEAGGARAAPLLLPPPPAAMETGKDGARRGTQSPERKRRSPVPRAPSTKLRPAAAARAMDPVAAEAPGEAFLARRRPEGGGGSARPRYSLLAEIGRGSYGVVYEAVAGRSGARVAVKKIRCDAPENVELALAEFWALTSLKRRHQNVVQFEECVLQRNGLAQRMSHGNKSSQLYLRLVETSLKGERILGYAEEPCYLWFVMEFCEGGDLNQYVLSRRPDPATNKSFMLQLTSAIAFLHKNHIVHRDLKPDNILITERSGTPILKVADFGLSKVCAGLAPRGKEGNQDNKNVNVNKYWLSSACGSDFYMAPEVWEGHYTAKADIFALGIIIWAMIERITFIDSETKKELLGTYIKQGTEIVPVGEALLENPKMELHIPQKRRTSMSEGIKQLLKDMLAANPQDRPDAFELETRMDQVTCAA
T6 sequence (P04629 whole entry): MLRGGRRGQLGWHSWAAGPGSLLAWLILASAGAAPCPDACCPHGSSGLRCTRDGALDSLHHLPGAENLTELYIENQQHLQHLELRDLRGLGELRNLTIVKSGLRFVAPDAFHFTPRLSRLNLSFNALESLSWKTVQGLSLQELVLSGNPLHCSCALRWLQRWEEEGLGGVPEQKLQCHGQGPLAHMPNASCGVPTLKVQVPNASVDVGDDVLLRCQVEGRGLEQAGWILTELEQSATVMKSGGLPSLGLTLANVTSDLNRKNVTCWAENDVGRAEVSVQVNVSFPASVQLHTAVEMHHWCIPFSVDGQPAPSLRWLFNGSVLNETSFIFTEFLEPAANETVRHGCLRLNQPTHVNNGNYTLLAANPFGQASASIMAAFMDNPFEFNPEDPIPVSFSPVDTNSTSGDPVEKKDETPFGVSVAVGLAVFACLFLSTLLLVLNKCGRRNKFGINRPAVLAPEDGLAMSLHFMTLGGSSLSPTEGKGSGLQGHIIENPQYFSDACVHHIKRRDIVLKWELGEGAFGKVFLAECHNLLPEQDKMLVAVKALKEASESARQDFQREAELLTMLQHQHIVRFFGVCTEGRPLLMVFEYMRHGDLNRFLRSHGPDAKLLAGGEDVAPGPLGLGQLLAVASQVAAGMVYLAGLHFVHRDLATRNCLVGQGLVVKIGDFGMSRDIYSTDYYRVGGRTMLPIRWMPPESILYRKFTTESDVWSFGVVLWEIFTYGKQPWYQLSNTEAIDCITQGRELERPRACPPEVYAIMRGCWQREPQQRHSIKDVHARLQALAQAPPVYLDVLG

As to `CC#CC(=O)N1CCC[C@H]1c1nc(-c2ccc(C(=O)Nc3ccccn3)cc2)c2c(N)nccn12` [Acalabrutinib], the remaining binding at 0.3 µM was determined as 95% in [1] (setting [3]); 82% at ICK (setting [3]); 95% at NEK3 (setting [3]); 72% on PIK4CB (setting [3]); 79% at RIPK2 (setting [3]); 79% in [2] (setting [3]). In addition, the remaining binding at 0.3 µM on STK35 (setting [3]) was 96%; at TRKA (setting [3]) it was 88%.

Consider `C=CC(=O)N1CCC[C@@H](n2nc(-c3ccc(Oc4ccccc4)cc3)c3c(N)ncnc32)C1` [Ibrutinib], for which the remaining binding at 0.3 µM on ICK (setting [4]) stood at 61%; on MARK4 (setting [4]) it was 96%; on NEK3 (setting [4]) it was 99%; on PRKCD (setting [4]) it was 90%; on RIPK2 (setting [4]) it was 6.4%; in [2] (setting [4]) it was 98%. For the same compound, the remaining binding at 0.3 µM came out at 86% on STK35 (setting [4]) and 82% at TRKA (setting [4]).

With `CC#CC(=O)N1CC[C@@H](n2c(=O)n(-c3ccc(Oc4ccccc4)cc3)c3c(N)ncnc32)C1` [Tirabrutinib], the remaining binding at 0.3 µM in experiment [1] (setting [5]) was determined as 92%; on ICK (setting [5]) it was 60%; at MARK4 (setting [5]), 94%; on PIK4CB (setting [5]) it was 79%; at PRKCD (setting [5]) it was 90%; on RIPK2 (setting [5]), 33%. In addition, on TRKA (setting [5]), the remaining binding at 0.3 µM was found to be 83%.

As to `C=CC(=O)N1CCC([C@@H]2CCNc3c(C(N)=O)c(-c4ccc(Oc5ccccc5)cc4)nn32)CC1` [Zanubrutinib], the remaining binding at 0.3 µM in [1] (setting [6]) is 72%; at MARK4 (setting [6]) it was 83%; at NEK3 (setting [6]), 100%; at PIK4CB (setting [6]), 94%; at PRKCD (setting [6]), 83%; in experiment [2] (setting [6]), 74%. In addition, the remaining binding at 0.3 µM turned out to be 92% on STK35 (setting [6]) and 99% at TRKA (setting [6]).

(Values after article PMC10004634 (PLOS ONE, 2023).)
